Consider four compounds from US10221439B2, “Sensors, methods and kits for detecting nicotinamide adenine dinucleotides” (Max-Planck-Gesellschaft zur Förderung der Wissenschaften …, priority 2015, dated 2019).

Entries after “also recorded” stand apart in the source; their conditions may differ.

The test system of data set [1] is U2OS cells. Nature of the data set: Live cells perfusion experiment with sensor expressed in the cytosol. The format is cell-based. The note with it: for sensor response (ratio TMR/SiR, NADPH/NADP^+): 100 μM perfused on U2OS cells. As to the method: Semi-stable U2OS (SPR-Halo-p30-SNAP cloned in a pEBTet vector; see Bach et al. FEBS J. 2007 Feb.; 274(3):783-90 for the description of pEBTet) freshly trypsinated are diluted 5-fold with DMEM GlutaMax+10% FBS and 1 μg/mL puromycin. They are plated (2 mL) in previously sterilized and poly-L-ornithine coated (1 h incubation) glass coverslips (20×20 mm, VWR) in 12-well plate (TPP). On day 2, the expression is induced by 100 ng/mL doxycycline for ˜24 h. […] On day 4, the cells are washed 3 times with DMEM GlutaMax+10% FBS without phenol red (10 min incubation, 37° C., 5% CO2 between each step). After 30 min of incubation, the cells are ready for imaging. Glass coverslips with labelled U2OS cells were transferred to a Cytoo chamber (44×34×10 mm). Gravity fed perfusion of the chamber was performed at a flow rate of 1 mL/min. Time-course experiments of sensor imaging were performed using a Leica LAS AF 7000 wide-field microscope equipped with a 63× plan Apochromat 1.40 NA oil immersion objective lens. A xenon arc lamp was used for imaging of the U2OS cells. For each frame, the two channels (donor and FRET) were measured consecutively with an interval of 10 s between the two emission channels. The filter set Cy3/Cy5 was used for FRET ratio imaging with excitation at 530/35 and emission at 580/40 (Cy3) as well as excitation at 635/30 and emission at 700/72 (Cy5). If not indicated otherwise, the image size was […]. The reagent perfused during the experiment (H2O2, SPY) were dissolved in HBSS (Lonza). HBSS solution was continuously perfused during the other time point of the experiment.

The conditions of data set [2]: cited from earlier work.
The target in data set [3] is Wild-type human SPR (Homo sapiens, UniProt P35270). The note with it: cited from earlier work.
Sequence of Wild-type human SPR (P35270 whole entry): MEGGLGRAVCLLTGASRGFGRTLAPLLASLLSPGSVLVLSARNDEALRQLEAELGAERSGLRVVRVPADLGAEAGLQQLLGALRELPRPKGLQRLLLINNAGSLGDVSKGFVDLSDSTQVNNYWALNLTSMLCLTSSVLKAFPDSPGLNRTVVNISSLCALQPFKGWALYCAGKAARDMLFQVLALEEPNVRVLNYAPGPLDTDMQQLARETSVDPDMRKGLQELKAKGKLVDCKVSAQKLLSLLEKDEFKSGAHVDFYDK

For the compound `OO` [H2O2, hydrogen peroxide], the “sensor response (ratio TMR/SiR, NADPH/NADP^+)” value is recorded as “decreased NADPH/NADP^+ ratio” in data set [1] and “sharp decrease of the ratio” in data set [1] (listed as hydrogen peroxide). Regarding `Nc1ccc(S(=O)(=O)Nc2ccccn2)cc1` [sulfapyridine], the “pKa of the sulfonamide proton” value in data set [2] is listed as 8.4. Also, the “sensor response (ratio TMR/SiR)” value in data set [1] (2 mM perfused on U2OS cells) is given as “increased ratio TMR/SiR; also recorded: fully open the sensor”.

Regarding “nicotinamide adenine dinucleotide phosphate [NADPH]”, the equilibrium dissociation constant (Kd) in data set [3] is 1 µM. With “nicotinamide adenine dinucleotide phosphate [NADP^+]”, in data set [3], the Kd is 10 µM.
